Experimental data published in US4617336A, “Acylated calixarene stabilizers” (Ciba-Geigy Corporation, priority 1985, dated 1986).

Assays:
[1] = FS/BL (fluorescent sunlight/black light) exposure of polypropylene films (5 mil); settings: failure = 0.5 carbonyl absorbance
Text: The samples are exposed in a fluorescent sunlight/black light chamber until failure. Failure is taken as the hours required to reach 0.5 carbonyl absorbance by infrared spectroscopy on the exposed films.

[2] = Angle to break of oven aged ABS plaques (ASTM D747); set-up: key: NB: No break; settings: additive 0.225%
Procedure: This example illustrates the stabilization of acrylonitrile-butadiene-styrene (ABS) copolymer by the compounds of this invention. The testing procedure is as follows:
The antioxidant is dissolved in toluene and emulsified in water using Triton X-100 (Rohm & Haas) as a surfactant. The resultant emulsion is mixed well with ABS copolymer containing 40% butadiene (rubber). Steam coagulation of the emulsion/latex mixture yields 40% rubber stabilized ABS crumbs which are then dried at 80° C. for 30 minutes in a fluidized bed drier. The resultant crumbs are combined with styrene-acrylonitrile pellets on a two roll mill for six minutes. The resultant 15% rubber containing ABS milled sheet is compression molded at 400° F. into 60 mil plaques which are die cut into 1"×3" specimens. The sample plaques are then oven aged at 150° C. and the angle to break is monitored (ASTM D747). This consists of applying a set load through an angle with one stationary point and one moveable point, flexing the sample. The angle is monitored for several aging periods until the specimen breaks.

[3] = Oven ageing of stabilized polypropylene plaques (25 mil) at 150° C., oxidative stability
Procedure: Unstabilized polypropylene powder (Hercules Profax 6501) is thoroughly blended with the indicated amount of additive. The blended materials are then milled on a two roll mill at 182° C. for 5 minutes, after which time the stabilized polypropylene is sheeted from the mill and allowed to cool. The milled polypropylene is then cut into pieces and compression molded on a hydraulic press at 220° C. and 175 psi (1.2×10^6 Pa) into 25 mil thick plaques. The plaques are then exposed to air in a force draft oven maintained at 150° C. The plaques are considered to have failed on showing the first signs of decomposition (e.g. cracking or brown edges).

[4] = Solubility in hydrocarbon solvents; format: physicochemical; settings: 24° to 25° C.
Procedure: This example provides solubility data for the instant stabilizers in two hydrocarbon solvents. The indicated stabilizer is dissolved in the minimal amount of solvent at 24° to 25° C. The value range reported is percent by weight of additive in total weight of solution.

[5] = Oxidation stability of polypropylene stretched tapes (2 mil) in forced draft oven at 115° C.; settings: additive 0.2%
Procedure: The oxidation stability of milled polypropylene samples (prepared as in Examples 9 and 10), containing the indicated stabilizers, is measured on stretched tapes of 2 mil thickness on exposure to air in a forced draft oven at 115° C.

[6] = additive 0.2%, no co-stabilizer

With “Para-[2(carbooctadecyloxy)ethyl]hydroxycalix[n]arene [Example 4]” the “FS/BL Test Results (Hours to Failure)” value ([1]; additive 0.3% by weight) was 240 h, the “Angle to Break (Oven Aged Samples)” value ([2]; 0 Min at 150° C.) was “NB” and the “Angle to Break (Oven Aged Samples)” value ([2]; 30 Min at 150° C.) was “NB”. For the same substance, the “Angle to Break (Oven Aged Samples)” value ([2]; 45 Min at 150° C.) was “NB”, the “Angle to Break (Oven Aged Samples)” value ([2]; 60 Min at 150° C.) was “NB” and the “Angle to Break (Oven Aged Samples)” value ([2]; 120 Min at 150° C.) was 55. The “Oxidative Stability Time to Failure” value ([3]; additive 0.1% with 0.3% DLTDP) was 340 h and the “Oxidative Stability Time to Failure” value ([3]; additive 0.3%, no co-stabilizer) was 150 h.

In the case of “Para-[2-(carbododecyloxy)ethyl]hydroxycalix[n]arene [Example 3]”, the “FS/BL Test Results (Hours to Failure)” value ([1]; additive 0.2% by weight) is reported as 230 h, the “wt/wt % Solubility in Toluene” value [4] is reported as over 50 wt/wt % and the “Oxidative Stability Time to Failure” value ([3]; additive 0.1% with 0.3% DLTDP) is reported as 420 h. The “Oxidative Stability Time to Failure” value [3, 6] was 150 h.

With “Para-carbobutoxy-hydroxycalix(n)arene [Example 8]” the “Oxidative Stability Time to Failure” value ([3]; additive 0.1% with 0.3% DSTDP) was 210 h and the “Oxidative Stability Time to Failure” value [3, 6] was 20 h.

With “Para-carbododecyloxyhydroxy-calix(n)arene [Example 5]” the “Oxidative Stability Time to Failure” value ([3]; additive 0.1% with 0.3% DSTDP) was 210 h and the “Oxidative Stability Time to Failure” value [3, 6] was 30 h.

With “Para-carbooctadecyloxy-hydroxycalix(n)arene [Example 7]” the “Oxidative Stability Time to Failure” value [5] was 290 h, the “Oxidative Stability Time to Failure” value ([3]; additive 0.1% with 0.3% DSTDP) was 250 h and the “Oxidative Stability Time to Failure” value [3, 6] was 30 h.
